Data published in patent publication US6362321B1, “Taxol resistance associated gene” (The General Hospital Corporation, priority 1998, dated 2002).

What was measured:
SKOV-3TR cells = experiment: MTT cytotoxicity assay, taxol-resistant SKOV-3TR versus parental SKOV-3; type: cell-based, Human
Description: (§1) All drugs were obtained from commercial sources. In vitro cytotoxicity was measured using a tetrazolium-based semi-automated calorimetric assay (i.e., MTT assay), as described (Carmichael et al., 1987, Cancer Res. 47:936-942). Briefly, 2×10^3 cells per well were cultured for 6 days with taxol or with taxol plus 30 μM verapamil. 20 μl of 5 mg/ml MTT solution was added to each well and incubated for 4 hours. A590 nm was measured after MTT formazan was solubilized with HCl-isopropanol solution. The absorbance values were normalized by assigning the value of the parent line in media to 1.0 and the value of the no-cell blank to 0. Experiments were performed in duplicate.
A taxol-resistant SKOV-3 subline, SKOV-3TR, was established by exposing SKOV-3 cells to taxol at stepwise increases in concentration (from 0.00001 μM to 0.3 μM taxol). […] The growth rate of […], was similar to that of parental SKOV-3. Cell lines were analyzed for their degree of taxol resistance by MTT cytotoxicity assays. […] This drug resistance profile is consistent with a MDR1 phenotype.

[1] = tested on: SKOV-3 TRAG-3 transfectants; experiment: MTT assay of taxol sensitivity in TRAG-3 stable transfectants of SKOV-3; type: cell-based, Human; conditions: SKOV-3 lipotransfected with pCI/TRAG-3, G418 selected; initial results
Description: as §1
pCI-neo Mammalian Expression Vector (Promega) was used to overexpress TRAG-3 cDNA in SKOV-3 cells. Constructs carrying TRAG-3 were introduced into SKOV-3 cells by using the PERFECT™ Transfection Kit (Invitrogen) according to the manufacturer's protocol. The individual G418 (300 μg/ml) resistant clones were isolated and examined by Northern analysis for stable expression of TRAG-3. MTT assays were performed on the transfectants to evaluate the effect of TRAG-3 on taxol sensitivity.
To elucidate the contribution of TRAG-3 gene product(s) to taxol resistance, taxol-sensitive SKOV-3 cells were lipotransfected with the pCI/TRAG-3 expression vector. After G418 selection, several TRAG-3 stable transfectant subclones were obtained. […]

Compound: CC(=O)O[C@H]1C(=O)[C@@]2(C)[C@H]([C@H](OC(=O)c3ccccc3)[C@]3(O)C[C@H](OC(=O)[C@H](O)[C@@H](NC(=O)c4ccccc4)c4ccccc4)C(C)=C1C3(C)C)[C@]1(OC(C)=O)CO[C@@H]1C[C@@H]2O [taxol]
- degree of taxol resistance of SKOV-3TR relative to SKOV-3 (SKOV-3TR cells; MTT cytotoxicity, SKOV-3TR vs parental SKOV-3, 6 days culture): approximately 100 fold
- taxol resistance of TRAG-3 transfectants compared to the parent line [1]: no significant increase in taxol resistance

Compound: COc1ccc(CCN(C)CCCC(C#N)(c2ccc(OC)c(OC)c2)C(C)C)cc1OC (stereo not shown) [verapamil]
- effect of verapamil on SKOV-3TR's resistance to taxol (SKOV-3TR cells; taxol plus 30 μM verapamil, MTT assay, FIG. 1): reversed

Compound: CC[C@]1(O)C[C@H]2CN(CCc3c([nH]c4ccccc34)[C@@](C(=O)OC)(c3cc4c(cc3OC)N(C=O)[C@H]3[C@@](O)(C(=O)OC)[C@H](OC(C)=O)[C@]5(CC)C=CCN6CC[C@]43[C@@H]65)C2)C1 [vincristine]
- resistance of SKOV-3TR to other drugs (cross-resistance) (SKOV-3TR cells; SKOV-3TR selected with taxol up to 0.3 μM): cross-resistance
